The values that follow are results of earlier work, collected in paper PMC4108727 (Angewandte Chemie (International ed. in English), 2013).

In the data set the target is MTH1 (Homo sapiens, UniProt P36639). As to conditions: substrate of MTH1; cited from earlier work.

Structures are written as SMILES.

In the case of `Nc1ncnc2c1[nH]c(=O)n2[C@H]1C[C@H](O)[C@@H](COP(=O)(O)OP(=O)(O)OP(=O)(O)O)O1` [8-oxo-dATP], the Michaelis-Menten constant (Km) was 13.9 µM.

Take `Nc1nc2c([nH]c(=O)n2[C@H]2C[C@H](O)[C@@H](COP(=O)(O)OP(=O)(O)OP(=O)(O)O)O2)c(=O)[nH]1` [8-oxo-dGTP]: the Michaelis-Menten constant (Km) is 15.2 µM.

In general, Km refers to the substrate concentration at which the rate is half of its maximum.
